Results taken from patent publication US8309558B2, “Compounds for the treatment of hepatitis C” (Bristol-Myers Squibb Company, priority 2008, dated 2012).
Like-named read-outs stand apart in the source and are kept apart here.

Tests used:
[1] = test system: HCV replicon cells; assay: HCV replicon FRET / luciferase assay (96-well plates); type: cell-based; conditions: Hepatitis C virus, HCV replicon, read-out: EC50
Source text: FRET Assay Preparation. To perform the HCV FRET screening assay, 96-well cell culture plates were used. The FRET peptide (Anaspec, Inc.) (Taliani et al., Anal. Biochem. 1996, 240, 60-67) contains a fluorescence donor, EDANS, near one end of the peptide and an acceptor, DABCYL, near the other end. The fluorescence of the peptide is quenched by […] resonance energy transfer (RET) between the donor and the acceptor, but as the NS3 protease cleaves the peptide the products are released from RET quenching and the fluorescence of the donor becomes apparent. The assay reagent was made as follows: 5× cell Luciferase cell culture lysis reagent from Promega (#E153A) diluted to 1× with dH2O, NaCl added to 150 mM final, the FRET peptide diluted to 20 μM final from a 2 mM stock.
To prepare plates, HCV replicon cells, with or without a Renilla luciferase reporter gene, were trypsinized and placed into each well of a 96-well plate with titrated test compounds added in columns 3 through 12; columns 1 and 2 contained a control compound (HCV protease inhibitor), and the bottom row contained cells without compound. The plates were then placed in a CO2 incubator at 37° C.
Assays. Subsequent to addition of the test compounds described above (FRET Assay Preparation), at various times the plate was removed and Alamar blue solution (Trek Diagnostics, #00-100) was added per well as a measure of cellular toxicity. After reading in a Cytoflour 4000 instrument (PE Biosystems), plates were rinsed with PBS and then used for FRET assay by the addition of 30 ul of the FRET peptide assay reagent described above (FRET Assay Preparation) per well. The plate was then placed into the Cytoflour 4000 instrument which had been set to 340 excite/490 emission, automatic mode for 20 cycles and the plate read in a kinetic mode. Typically, the signal to noise using an endpoint analysis after the reads was at least three-fold. Alternatively, after Alamar blue reading, plates were rinsed with PBS, 50 ul of DMEM (high glucose) without phenol red was added and plates were then used for luciferase assay using the Promega Dual-Glo Luciferase Assay System.
Compound analysis was determined by quantification of the relative HCV replicon inhibition and the relative cytotoxicity values. To calculate cytoxicity values, the average Alamar Blue fluorescence signals from the control wells were set as 100% non-toxic. The individual signals in each of the compound test wells were then divided by the average control signal and multiplied by 100% to determine […]. To calculate the HCV replicon inhibition values, an average background value was obtained from the two wells containing the highest amount of HCV protease inhibitor at the end of the assay period. These numbers were similar to those obtained from naïve Huh-7 cells.
The background numbers were then subtracted from the average signal obtained from the control wells and this number was used as 100% activity. The individual signals in each of the compound test wells were then divided by the averaged control values after background subtraction and multiplied by 100% to determine percent activity. EC50 values for a protease inhibitor titration were calculated as the concentration which caused a 50% reduction in FRET or luciferase activity. The two numbers generated for the compound plate, percent cytoxicity and percent activity were used to determine compounds of interest for further analysis.

[2] = target: T1, HCV NS5B RdRp genotype 1b (Hepatitis C virus genotype 1b, UniProt Q9WMX2); assay: Standard HCV NS5B RdRp enzyme assay; type: biochemical; conditions: HCV NS5B RdRp genotype 1b, read-out: IC50
T1 construct: The protein was expressed with an 18 amino acid C-terminal truncation to enhance the solubility; made in house; host or cells: E. coli BL21(DE3), pET21a vector
T1 sequence (Q9WMX2 2420-2992): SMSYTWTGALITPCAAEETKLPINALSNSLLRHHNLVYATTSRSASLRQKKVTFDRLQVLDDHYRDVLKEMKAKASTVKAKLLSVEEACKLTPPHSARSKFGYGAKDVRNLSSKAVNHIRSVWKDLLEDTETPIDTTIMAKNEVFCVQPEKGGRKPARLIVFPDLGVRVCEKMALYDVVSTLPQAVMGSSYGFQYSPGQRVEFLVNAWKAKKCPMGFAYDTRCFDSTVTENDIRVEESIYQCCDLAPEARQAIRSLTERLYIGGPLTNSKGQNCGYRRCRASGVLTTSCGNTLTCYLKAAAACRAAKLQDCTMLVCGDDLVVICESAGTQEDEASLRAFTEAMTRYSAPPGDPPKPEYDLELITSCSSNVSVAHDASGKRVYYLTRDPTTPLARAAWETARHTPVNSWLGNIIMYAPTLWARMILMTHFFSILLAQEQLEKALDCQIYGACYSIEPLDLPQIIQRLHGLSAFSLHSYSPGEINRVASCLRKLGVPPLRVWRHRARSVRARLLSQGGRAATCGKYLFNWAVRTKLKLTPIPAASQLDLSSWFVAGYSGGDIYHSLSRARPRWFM
Method: HCV NS5B RdRp cloning, expression, and purification. The cDNA encoding the NS5B protein of HCV, genotype 1b, was cloned into the pET21a expression vector. The protein was expressed with an 18 amino acid C-terminal truncation to enhance the solubility. The E. coli competent cell line BL21(DE3) was used for expression of the protein. Cultures were grown at 37° C. for ˜4 hours until the cultures reached an optical density of 2.0 at 600 nm. The cultures were cooled to 20° C. and induced with 1 mM IPTG. Fresh ampicillin was added to a final concentration of 50 μg/ml and the cells were grown overnight at 20° C.
Cell pellets (3 L) were lysed for purification to yield 15-24 mgs of purified NS5B. The lysis buffer consisted of 20 mM Tris-HCl, pH 7.4, 500 mM NaCl, 0.5% triton X-100, 1 mM DTT, 1 mM EDTA, 20% glycerol, 0.5 mg/ml lysozyme, 10 mM MgCl2, 15 ug/ml deoxyribonuclease I, and Complete TM protease inhibitor tablets (Roche). After addition of the lysis buffer, frozen cell pellets were resuspended using a tissue homogenizer. To reduce the viscosity of the sample, aliquots of the lysate were sonicated on ice using a microtip attached to a Branson sonicator. The sonicated lysate was centrifuged at 100,000×g for 1 hr at 4° C. and filtered through a 0.2 μm filter unit (Corning).
The protein was purified using three sequential chromatography steps: Heparin sepharose CL-6B, polyU sepharose 4B, and Hitrap SP sepharose (Pharmacia). The chromatography buffers were identical to the lysis buffer but contained no lysozyme, deoxyribonuclease I, MgC12 or protease inhibitor and the NaCl concentration of the buffer was adjusted according to the requirements for charging the protein onto the column. Each column was eluted with a NaCl gradient which varied in length from 5-50 column volumes depending on the column type. After the final chromatography step, the resulting purity of the enzyme is >90% based on SDS-PAGE analysis. The enzyme was aliquoted and stored at −80° C.
Standard HCV NS5B RdRp enzyme assay. HCV RdRp genotype 1b assays were run in a final volume of 60 μl in 96 well plates (Costar 3912). The assay buffer composed of 20 mM Hepes, pH 7.5, 2.5 mM KCl, 2.5 mM MgCl2, 1 mM DTT, 1.6 U RNAse inhibitor (Promega N2515), 0.1 mg/ml BSA (Promega R3961), and 2% glycerol. All compounds were serially diluted (3-fold) in DMSO and diluted further in water such that the final concentration of DMSO in the assay was 2%. HCV RdRp genotype 1b enzyme was used at a final concentration of 28 nM. A polyA template was used at 6 nM, and a biotinylated oligo-dT12 primer was used at 180 nM final concentration. Template was obtained commercially (Amersham 27-4110). Biotinylated primer was prepared by Sigma Genosys. 3H-UTP was used at 0.6 μCi (0.29 μM total UTP). Reactions were initiated by the addition of enzyme, incubated at 30° C. for 60 min, and stopped by adding 25 μl of 50 mM EDTA containing SPA beads (4 μg/μl, Amersham RPNQ 0007). Plates were read on a Packard Top Count NXT after >1 hr incubation at room temperature.
IC50 values for compounds were determined using seven different [I]. IC50 values were calculated from the inhibition using the formula y=A+((B−A)/(1+((C/x)^D))).

SMILES | EC50 ([1]; Table 1a) | IC50 ([2]; Table 1a) | IC50 ([2]; Table 1b) | other results
CNC(=O)c1c(-c2ccc(F)cc2)oc2ccc(-c3cccc(C(=O)NC(C)C)c3)cc12 | < 250 nM | < 250 nM | – | –
CNC(=O)c1c(-c2ccc(F)cc2)oc2ccc(-c3cc(C(=O)NC4(c5ccccn5)CC4)c(OCC(N)=O)cc3C)cc12 | – | – | – | EC50 ([1]; 24 h, Table 1d (class symbols)): 1 to 250 nM; IC50 ([2]; Table 1d (class symbols)): < 20 nM
CNC(=O)c1c(-c2ccc(F)cc2)oc2ccc(OCCOc3ccc(C(C)(C)C)cc3)cc12 | 1000 to 10000 nM | > 10000 nM | – | –
CNC(=O)c1c(-c2ccc(F)cc2)oc2ccc(-c3cccc(C(=O)NC4CC4)c3)cc12 | 250 to 1000 nM | 250 to 1000 nM | – | –
CNC(=O)c1c(-c2ccc(F)cc2)oc2ccc(-c3cc(OC)ncc3Cl)cc12 | > 1230 nM | > 10000 nM | – | –
CCOC(=O)c1[nH]c(-c2cccc(-c3ccc4oc(-c5ccc(F)cc5)c(C(=O)NC)c4c3)c2)nc1C | – | – | < 250 nM | –
CNC(=O)c1c(-c2ccc(F)cc2)oc2ccc(-c3cc(C(=O)NCC(C)C)cc(-c4ccccc4)c3)cc12 | – | – | > 10000 nM | EC50 ([1]; Table 1b): > 10000 nM
CNC(=O)c1c(-c2ccc(F)cc2)oc2ccc(-c3cccc(C(=O)NCc4ccncc4)c3)cc12 | 250 to 1000 nM | < 250 nM | – | –
CNC(=O)c1c(-c2ccc(F)cc2)oc2ccc(-c3cccc(C(=O)Nc4ccc(C)cn4)c3)cc12 | < 250 nM | < 250 nM | – | –
CCN(CC)C(=O)c1cccc(-c2ccc3oc(-c4ccc(F)cc4)c(C(=O)NC)c3c2)c1 | 1000 to 10000 nM | 1000 to 10000 nM | – | –
CNC(=O)c1c(-c2ccc(F)cc2)oc2ccc(-c3cc(OCC4CC4)cc(C(=O)NCC(C)C)c3)cc12 | – | – | > 10000 nM | EC50 ([1]; Table 1b): 250 to 1000 nM
CNC(=O)c1c(-c2ccc(F)cc2)oc2ccc(-c3cc(C(=O)NC4(c5ocnc5C)CC4)c(OC)cc3C)cc12 | – | – | – | EC50 ([1]; 24 h, Table 1d (class symbols)): 1 to 250 nM; IC50 ([2]; Table 1d (class symbols)): 1 to 250 nM
CNC(=O)c1c(-c2ccc(F)cc2)oc2ccc(-c3cccc(C(=O)NCc4cccc(F)c4)c3)cc12 | < 250 nM | < 250 nM | – | –
CNC(=O)c1c(-c2ccc(F)cc2)oc2ccc(-c3ccc(Cl)c(C(=O)NC4(c5ccccn5)CC4)c3)cc12 | – | – | 250 to 1000 nM | EC50 ([1]; Table 1b): > 10000 nM
CNC(=O)c1c(-c2ccc(F)cc2)oc2ccc(-c3cc(OCc4cc(C)on4)cc(C(=O)NCC(C)C)c3)cc12 | – | – | > 1390 nM | EC50 ([1]; Table 1b): 1000 to 10000 nM
CNC(=O)c1c(-c2ccc(F)cc2)oc2ccc(-c3cc(C(=O)NCC(C)C)ccc3OC3CCC3)cc12 | 250 to 1000 nM | > 1390 nM | – | –
CNC(=O)c1c(-c2ccc(F)cc2)oc2ccc(-c3cc(C(=O)NCC(C)C)ccc3OCCC(C)C)cc12 | – | – | > 10000 nM | EC50 ([1]; Table 1b): 1000 to 10000 nM
CNC(=O)c1c(-c2ccc(F)cc2)oc2cc(N(CCO)S(C)(=O)=O)c(-c3cccc(C(=O)NC(C)(C)c4ccccc4)c3)cc12 | < 250 nM | < 250 nM | – | –
CNC(=O)c1c(-c2ccc(F)cc2)oc2ccc(-c3ccc(-c4cccc(CO)c4)c(C(=O)NCC(C)C)c3)cc12 | – | – | < 250 nM | EC50 ([1]; Table 1b): < 250 nM

SMILES | EC50 ([1]; Table 1a) | IC50 ([2]; Table 1a) | IC50 ([2]; Table 1b) | other results
CNC(=O)c1c(-c2ccc(F)cc2)oc2ccc(-c3cc(C(=O)NC4(C(=O)O)CC4)c(O)cc3Cl)cc12 | – | – | 250 to 1000 nM | –
CNC(=O)c1c(-c2ccc(F)cc2)oc2ccc(-c3cc(C(=O)NC4(c5nc(C6CC6)no5)CC4)ccc3C)cc12 | – | – | < 250 nM | EC50 ([1]; Table 1b): < 250 nM
C=C[C@@H]1C[C@]1(NC(=O)c1cccc(-c2ccc3oc(-c4ccc(F)cc4)c(C(=O)NC)c3c2)c1)C(=O)NS(=O)(=O)C1CC1 | > 10000 nM | 250 to 1000 nM | – | –
CNC(=O)c1c(-c2ccc(F)cc2)oc2cc([N+](=O)[O-])c(-c3cccc(C(=O)O)c3)cc12 | > 10000 nM | 1000 to 10000 nM | – | –
CNC(=O)c1c(-c2ccc(F)cc2)oc2ccc(-c3cc(C(=O)NCC(C)C)ccc3OCc3c[nH]c(C)n3)cc12 | – | – | < 250 nM | EC50 ([1]; Table 1b): < 250 nM
CNC(=O)c1c(-c2ccc(F)cc2)oc2ccc(-c3ccc(-c4ccccc4C(N)=O)c(C(=O)NC4(c5ccccn5)CC4)c3)cc12 | – | – | < 250 nM | EC50 ([1]; Table 1b): < 250 nM
CNC(=O)c1c(-c2ccc(F)cc2)oc2ccc(-c3ccc(-c4cnc(N)nc4)c(C(=O)NCC(C)C)c3)cc12 | – | – | < 250 nM | –
CNC(=O)c1c(-c2ccc(F)cc2)oc2ccc(-c3ccc(-c4cccc(N)c4)c(C(=O)NCC(C)C)c3)cc12 | – | – | < 250 nM | –
CNC(=O)c1c(-c2ccc(F)cc2)oc2ccc(-c3cc(C(=O)NC4(c5cccc(C)n5)CC4)c(OC)cc3C)cc12 | – | – | – | IC50 ([2]; Table 1d (class symbols)): 1 to 250 nM
CNC(=O)c1c(-c2ccc(F)cc2)oc2cc(N(CCO)S(C)(=O)=O)c(/C=C/C(=O)NC(C)(C)c3ccccc3)cc12 | – | – | < 250 nM | –
CNC(=O)c1c(-c2ccc(F)cc2)oc2ccc(-c3ccc(-c4cncnc4)c(C(=O)NCC(C)C)c3)cc12 | – | – | < 250 nM | –
CNC(=O)c1c(-c2ccc(F)cc2)oc2ccc(-c3ccc(-c4cncc(OC)c4)c(C(=O)NCC(C)C)c3)cc12 | – | – | 250 to 1000 nM | –
CNC(=O)c1c(-c2ccc(F)cc2)oc2ccc(-c3ccc(-c4ccnc(C)c4)c(C(=O)NCC(C)C)c3)cc12 | – | – | < 250 nM | –
CNC(=O)c1c(-c2ccc(F)cc2)oc2ccc(-c3ccc(-c4c[nH]c(=O)[nH]c4=O)c(C(=O)NCC(C)C)c3)cc12 | – | – | < 250 nM | –
CNC(=O)c1c(-c2ccc(F)cc2)oc2ccc(-c3cc(C(=O)NC4(C(=O)OC)CC4)c(O)cc3Cl)cc12 | – | – | 250 to 1000 nM | –
CNC(=O)c1c(-c2ccc(F)cc2)oc2ccc(-c3ccc(-c4ccsc4)c(C(=O)NCC(C)C)c3)cc12 | – | – | < 250 nM | –
CNC(=O)c1c(-c2ccc(F)cc2)oc2cc(NS(C)(=O)=O)c(/C=C/C(=O)NC(C)(C)c3ccccc3)cc12 | – | – | 1000 to 10000 nM | –
CNC(=O)c1c(-c2ccc(F)cc2)oc2ccc(-c3ccc(-c4cncc(C)c4)c(C(=O)NCC(C)C)c3)cc12 | – | – | 250 to 1000 nM | –
